Experiment [1] deals with scopolamine-induced memory impairment. In words: Morris Water Maze, scopolamine-induced memory impairment. It counts as in vivo, Wistar rats. Conditions: 20 mg/kg; daily, oral; scopolamine 0.5 mg/kg i.p.
Experiment [2] addresses T1, NR2B-subtype receptors (Mus musculus, UniProt P35438+Q01097).
T1 construct: from tissue; host or cells: forebrain membrane homogenate of male CD-1 mice
Nature of the experiment: NR2B receptor occupancy ex vivo (3H Ro 25-6981) after intravenous administration. It counts as in vivo, CD-1 mice. How it is done:
In this experiment, 8-10 weeks old male CD-1 mice (n=12) were administered intravenously in a vehicle consisting of 10% dimethylacetamide, 40% PEG-400, 30% hydroxypropyl betacyclodextrin, and 30% water with cyclic Prolyl Glycine (0.10 mg: rill, and the forebrains were harvested 15 minutes post-dosing by decapitation. The brain samples were immediately frozen and stored at −80′ C.
On the following day, the dosed brain samples were thawed on ice for 20-30 minutes followed by homogenization using Polytron for 10 seconds in cold homogenization buffer composed of 50 mM KH2PO4 (pH adjusted to 7.4 with KOH), 1 mM EDTA, 0.005% Triton X 100 and protease inhibitor cocktail (Fischer Scientific). The crude homogenates were further homogenized using a Bounce homogenizer (Thomas Scientific) and the homogenized membrane aliquots from all animals were […] and stored at −80° C. until further use. The whole homogenization process was performed on ice.
For determining occupancy, the membrane homogenates were thawed on ice and then needle homogenized using a 25-gauge needle. […] Non-specific binding was determined using 10 μM Ro 25-6981 added to the wells containing membrane homogenates from vehicle-dosed animals. […]

Experiment [3] deals with immobility behavior. In words: Mouse Forced Swim Test (mFST). Format: in vivo, mice. Conditions: 1 mg/Kg i.v. thirty minutes before swim session. How it is done: Forced Swim Test (FST) is an animal model used to assess antidepressant compounds in preclinical studies. The FST was performed similar to the method of Porsolt et al. with modifications (Porsolt R D, Bertin A, Jalfre M. Behavioral despair in mice: a primary screening test for antidepressants. Arch Int Pharmacodyn Thér 1977; 229:327-36).
In this experiment, mice are forced to swim in an inescapable cylinder filled with water. Under these conditions, mice will initially try to escape and eventually develop immobility behavior; this behavior is interpreted as a passive stress-coping strategy or depression-like behavior. Swim tanks were positioned inside a box made of plastic. […] The duration of immobility was evaluated during the total 6 min of the test and expressed as duration (sec) of immobility. […]
In order to avoid the risk of obtaining the false positive\negative effects in the FST caused by a possible influence of the tested drugs on the locomotor activity, spontaneous locomotor activity was measured using an animal activity meter Opto-Varimex-4 Auto-Track (Columbus Instruments, USA). […] Spontaneous locomotor activity was evaluated between the 2nd and the 6th min, which corresponds with the time interval analysed in the FST. […]
Drug levels were 215 nM in the plasma. The NR2B receptor occupancy was determined to be 68%.

These results are taken from patent publication US12070458B2, “Therapeutic agent composition and method of use, for treatment of mild congnitive impairment, depression, and psychological disorders” (priority 2018, dated 2024).

T1 sequence (Q01097 27-1482, other chains not shown): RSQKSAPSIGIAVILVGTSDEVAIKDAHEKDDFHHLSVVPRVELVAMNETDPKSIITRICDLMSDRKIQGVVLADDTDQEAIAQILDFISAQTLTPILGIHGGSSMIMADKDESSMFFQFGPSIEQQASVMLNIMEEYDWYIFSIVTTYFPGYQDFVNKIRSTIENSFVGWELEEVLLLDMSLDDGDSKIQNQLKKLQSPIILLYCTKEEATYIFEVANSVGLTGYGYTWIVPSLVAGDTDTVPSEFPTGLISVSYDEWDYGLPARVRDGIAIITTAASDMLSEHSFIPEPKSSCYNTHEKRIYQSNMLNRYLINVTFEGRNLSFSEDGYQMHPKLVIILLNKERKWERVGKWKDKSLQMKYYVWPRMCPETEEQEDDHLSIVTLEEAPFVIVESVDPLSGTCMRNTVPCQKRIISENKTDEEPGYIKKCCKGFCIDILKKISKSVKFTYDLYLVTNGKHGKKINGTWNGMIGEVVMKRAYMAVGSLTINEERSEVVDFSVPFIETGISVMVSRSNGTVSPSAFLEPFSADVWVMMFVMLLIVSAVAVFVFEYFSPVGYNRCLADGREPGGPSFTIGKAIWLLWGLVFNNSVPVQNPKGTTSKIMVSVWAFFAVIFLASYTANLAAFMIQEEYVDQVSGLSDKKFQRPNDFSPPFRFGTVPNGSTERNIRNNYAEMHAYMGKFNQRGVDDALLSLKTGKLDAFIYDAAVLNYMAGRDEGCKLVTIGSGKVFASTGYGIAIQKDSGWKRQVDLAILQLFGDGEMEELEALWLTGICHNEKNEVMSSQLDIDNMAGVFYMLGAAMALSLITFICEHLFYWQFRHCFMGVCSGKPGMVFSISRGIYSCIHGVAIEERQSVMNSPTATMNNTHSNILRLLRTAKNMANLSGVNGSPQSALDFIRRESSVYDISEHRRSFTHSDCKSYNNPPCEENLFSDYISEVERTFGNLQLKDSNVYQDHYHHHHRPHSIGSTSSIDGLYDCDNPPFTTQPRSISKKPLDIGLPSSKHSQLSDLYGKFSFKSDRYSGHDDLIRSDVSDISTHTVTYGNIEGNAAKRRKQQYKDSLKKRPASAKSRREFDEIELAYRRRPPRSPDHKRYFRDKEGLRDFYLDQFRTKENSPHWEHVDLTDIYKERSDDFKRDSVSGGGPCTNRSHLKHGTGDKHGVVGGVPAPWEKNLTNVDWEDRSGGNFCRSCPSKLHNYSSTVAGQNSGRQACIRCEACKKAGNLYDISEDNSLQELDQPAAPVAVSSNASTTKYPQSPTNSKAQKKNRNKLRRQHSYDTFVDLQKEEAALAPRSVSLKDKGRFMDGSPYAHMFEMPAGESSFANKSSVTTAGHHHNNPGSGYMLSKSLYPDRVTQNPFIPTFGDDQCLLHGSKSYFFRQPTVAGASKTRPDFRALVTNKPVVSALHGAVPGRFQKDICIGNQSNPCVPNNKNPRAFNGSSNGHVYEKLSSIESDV

Turning to `O=C1NCC(=O)N2CCC[C@@H]12` [cPG, cyclic Prolyl Glycine], the “cognitive impairment induced by scopolamine (time to platform)” value in experiment [1] is recorded as “significantly reversed”. In experiment [2] (1 mg/Kg i.v., at the end of FST), the receptor occupancy at 1 mg/kg was found to be 73%. The compound also yielded a receptor occupancy at 3 mg/kg in experiment [2] (3 mg/Kg i.v., forebrains harvested 15 minutes post-dosing) of 93%. In experiment [3], the immobility time result is “statistically significant decrease”.
